Experiments:
MOR = settings: literature statement; cited from earlier work
[1] = target: delta opioid receptor (DOR) (Rattus norvegicus, UniProt P33533); test: Intracellular cAMP assay; format: cell-based; settings: FRSK cells; 10 μM forskolin, 1–1000 nM peptide, 30 min; cAMP-Glo
Chain of delta opioid receptor (DOR) (P33533 whole entry): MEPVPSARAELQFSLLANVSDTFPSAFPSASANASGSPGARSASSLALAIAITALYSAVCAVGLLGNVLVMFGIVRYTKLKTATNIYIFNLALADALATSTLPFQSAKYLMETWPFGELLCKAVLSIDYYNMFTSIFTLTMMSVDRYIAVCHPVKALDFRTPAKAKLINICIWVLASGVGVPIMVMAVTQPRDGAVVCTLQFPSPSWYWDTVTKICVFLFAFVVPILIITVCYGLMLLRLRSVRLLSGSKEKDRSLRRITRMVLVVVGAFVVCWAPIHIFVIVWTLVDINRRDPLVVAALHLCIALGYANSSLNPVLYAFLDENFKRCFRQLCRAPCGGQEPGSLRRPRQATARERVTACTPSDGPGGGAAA

In the case of β-endorphin, the “receptor preference (MOR)” value (MOR) is listed as “primary ligand for MOR” and the “effect on forskolin-induced intracellular cAMP” value [1] is listed as “attenuated this forskolin-induced increase in cAMP concentration in a dose-dependent manner”.

From PMC12800249 (Scientific Reports, 2025)
